Measurements taken from the NIST ThermoML archive (doi:10.1021/je060271a).

Conditions: 323.15 K, Liquid, Vibrating tube method

CCCCCCC(=O)OCC(COC(=O)CCCCCC)(COC(=O)CCCCCC)COC(=O)CCCCCC [pentaerythritol tetraheptanoate]
Conditions	mass density [kg/m3]
10134 kPa	962.4
10149 kPa	962.4
10164 kPa	962.4
10178 kPa	962.4
10196 kPa	962.4
10211 kPa	962.5
10229 kPa	962.4
10244 kPa	962.5
10259 kPa	962.5
10274 kPa	962.5
10292 kPa	962.5
10307 kPa	962.6
10322 kPa	962.6
10338 kPa	962.5
10356 kPa	962.7
10371 kPa	962.6
10386 kPa	962.7
10405 kPa	962.7
10420 kPa	962.7
10436 kPa	962.7
10468 kPa	962.6
10487 kPa	962.6
10503 kPa	962.8
10519 kPa	962.7
10538 kPa	962.7
10553 kPa	962.7
10572 kPa	962.8
10588 kPa	962.7
10604 kPa	962.8
10620 kPa	962.8
10639 kPa	962.8
10656 kPa	962.8
10672 kPa	962.7
10692 kPa	962.8
10708 kPa	962.8
10725 kPa	962.8
10741 kPa	962.8
10761 kPa	962.8
10777 kPa	962.8
10794 kPa	962.9
10814 kPa	962.9
10831 kPa	963
10851 kPa	963
10868 kPa	963
10885 kPa	962.9
10902 kPa	963
10923 kPa	963
10939 kPa	963
11105 kPa	963.1
11376 kPa	963.3
11395 kPa	963.2
11414 kPa	963.3
11433 kPa	963.2
11455 kPa	963.3
11474 kPa	963.3
11493 kPa	963.4
11516 kPa	963.3
11535 kPa	963.3
11558 kPa	963.4
11577 kPa	963.4
11597 kPa	963.4
11616 kPa	963.5
11640 kPa	963.4
11659 kPa	963.3
11979 kPa	963.7
12025 kPa	963.7
12045 kPa	963.6
12070 kPa	963.6
12091 kPa	963.7
12113 kPa	963.7
12138 kPa	963.7
12159 kPa	963.7
12181 kPa	963.8
12205 kPa	963.8
12226 kPa	963.7
12252 kPa	963.7
12274 kPa	963.9
12296 kPa	963.8
12322 kPa	963.9
12344 kPa	963.9
12367 kPa	964
12389 kPa	963.9
12416 kPa	963.9
12438 kPa	964
12488 kPa	963.9
12510 kPa	963.9
12533 kPa	964.1
12583 kPa	964.1
12606 kPa	964.1
12634 kPa	964.1
12680 kPa	964.2
12756 kPa	964.1
12832 kPa	964.3
12856 kPa	964.2
12884 kPa	964.2
12908 kPa	964.2
12937 kPa	964.3
13227 kPa	964.5
14188 kPa	965.1
14278 kPa	965.1
14314 kPa	965
14343 kPa	965.1
14609 kPa	965.3
14641 kPa	965.4
14675 kPa	965.3
14706 kPa	965.3
14744 kPa	965.4
14917 kPa	965.5
14957 kPa	965.6
14988 kPa	965.6
15013 kPa	965.6
15044 kPa	965.4
15070 kPa	965.6
15097 kPa	965.6
15124 kPa	965.6
15154 kPa	965.6
15175 kPa	965.8
15192 kPa	965.7
15213 kPa	965.7
15230 kPa	965.7
15251 kPa	965.6
15268 kPa	965.8
15287 kPa	965.7
15328 kPa	965.7
15347 kPa	965.7
15381 kPa	965.7
15629 kPa	966.1
15638 kPa	966.1
15649 kPa	966
15707 kPa	966
15727 kPa	966
15736 kPa	966
15745 kPa	966
15765 kPa	966.1
15774 kPa	966.1
15785 kPa	966.1
15794 kPa	966
15804 kPa	965.9
15814 kPa	966
15824 kPa	966.2
15833 kPa	966.2
15844 kPa	966.1
15863 kPa	966.1
15903 kPa	966.2
15953 kPa	966.3
15962 kPa	966.3
15972 kPa	966.2
15981 kPa	966.2
15992 kPa	966.3
16003 kPa	966.2
16012 kPa	966.2
16021 kPa	966.3
16033 kPa	966.3
16042 kPa	966.2
16052 kPa	966.3
16063 kPa	966.3
16072 kPa	966.3
16083 kPa	966.2
16092 kPa	966.3
16102 kPa	966.3
16112 kPa	966.2
16123 kPa	966.2
16133 kPa	966.3
16142 kPa	966.4
16154 kPa	966.3
16163 kPa	966.3
16175 kPa	966.3
16184 kPa	966.3
16194 kPa	966.4
16203 kPa	966.4
16215 kPa	966.3
16224 kPa	966.3
16234 kPa	966.5
16246 kPa	966.4
16256 kPa	966.3
16267 kPa	966.4
16277 kPa	966.3
16286 kPa	966.4
16296 kPa	966.5
16308 kPa	966.3
16317 kPa	966.4
16329 kPa	966.4
16339 kPa	966.3
16349 kPa	966.4
16360 kPa	966.4
16370 kPa	966.6
16380 kPa	966.4
16390 kPa	966.3
16402 kPa	966.4
16412 kPa	966.4
16422 kPa	966.5
16434 kPa	966.6
16443 kPa	966.5
16455 kPa	966.5
16465 kPa	966.5
16475 kPa	966.5
16487 kPa	966.6
16496 kPa	966.5
16507 kPa	966.6
16519 kPa	966.6
16529 kPa	966.6
16539 kPa	966.6
16551 kPa	966.5
16562 kPa	966.6
16572 kPa	966.5
16582 kPa	966.6
16594 kPa	966.5
16604 kPa	966.7
16614 kPa	966.6
16626 kPa	966.8
16636 kPa	966.6
16649 kPa	966.4
16657 kPa	966.6
16670 kPa	966.7
16680 kPa	966.6
16692 kPa	966.6
16702 kPa	966.7
16712 kPa	966.6
16725 kPa	966.6
16735 kPa	966.7
16823 kPa	966.7
16834 kPa	966.7
16844 kPa	966.8
16857 kPa	966.6
